The source of these data is patent publication US5084469A, “New substituted benzothiazolinones” (Adir et Compagnie, priority 1989, dated 1992).

This test is described as follows: Analgesic activity (Siegmund test, phenyl-p-benzoquinone writhing). The class given is in vivo. As to conditions: Mus musculus; oral, mice, 1 hour before i.p. phenyl-p-benzoquinone; writhing counted 5th to 10th minute; read-out: ED50 (dose producing a 50% decrease in the number of writhing movements). The procedure:
The activity against pain was investigated in mice (20-25 g) according to a protocol derived from the technique described by SIEGMUND (SIEGMUND E.A., R.A., CADMUS & GOLU, J. Pharm. Exp. Ther. 119, […], 1954). The mice, randomized in batches of 12 animals, received the treatment orally (excipient for the controls) 1 hour before the intraperitoneal injection of a 0.02% aqueousalcoholic solution of phenyl-p-benzoquinone (Sigma). The writhing movements are counted between the 5th and 10th minute after injection.
The percentage activity obtained was evaluated for each dose (% decrease in the number of writhing movements in the treated animals relative to the controls). An ED50, the dose producing a 50% activity, was determined for each product.

In the case of `O=c1[nH]c2ccc(Cc3ccccc3)cc2s1` [Example 1, 6-Benzylbenzothiazolinone], the ED50 is roughly 2 mg/kg.
